The text below walks through data of ChEMBL document CHEMBL3862043, “Fluorescent Inhibitors as Tools To Characterize Enzymes: Case Study of the Lipid Kinase Phosphatidylinositol 4-Kinase IIIβ (PI4KB)” (J Med Chem, 2017).

Structures are written as SMILES.

The series is described as follows: Drug uptake in vesicles of HeLa cells transfected with iRFP-tagged PI4KB (unknown origin) incubated for 30 mins by fluorescence spectroscopy. It counts as ADME, cell-based. The conditions noted are these: human, 0.5 h.

Turning to `CCc1cc(CNc2cc(Cl)nn3c(-c4ccc(OC)c(S(=O)(=O)NCc5cn(-c6cc7ccc(O)cc7oc6=O)nn5)c4)c(C)nc23)ccn1`, the Drug uptake entry is given as “Active”.
